# Assay results published in patent publication US9982017B2, “Synthetic apelin mimetics for the treatment of heart failure” (priority 2012, dated 2018).
# Where a SMILES comes first, the peptide text is derived from it. Bridges are numbered along the chain shown (N, C = ends). [ ]: non-standard residue; d: D form. The star is where a group is joined. Bip = N[C@@H](Cc1ccc(-c2ccccc2)cc1)C(=O)O; 3Pal = N[C@@H](Cc1cccnc1)C(=O)O; Myristoyl = CCCCCCCCCCCCCC(=O)*; pGlu = O=C1CC[C@@H](C(=O)O)N1; NHPhenethyl = c1ccc(CCN*)cc1; d(hCys) = N[C@H](CCS)C(=O)O; hCys = N[C@@H](CCS)C(=O)O; Nle = CCCC[C@H](N)C(=O)O; Orn = NCCC[C@H](N)C(=O)O; Dab = NCC[C@H](N)C(=O)O; AEEA = NCCOCCOCC(=O)O; Aib = CC(C)(N)C(=O)O
# Test: in vitro
# Conditions: rat, not told, Surrogate activity-based Plasma stability t½
# Method: The slope of this line, k, was determined by linear regression (Microsoft Excel). • Stability half-life was then calculated by the formula, t ½=0.693÷k Surrogate Activity-Based Plasma Stability Assay:
# The calcium flux protocol described above was followed, with the following changes. The peptides were also incubated with 5% rat plasma (Bioreclamation # [sequence]-M, Na Heparin-treated). Readings were taken at time points t0 and t24 hrs, after incubation in a 37° C. tissue culture incubator. Peptide plasma half-life in minutes was estimated by calculating the following:
# 2) Calculate slope of value above and
row,half-life [h],Compound
1,11.7,"CCCC[C@@H]1NC(=O)[C@@H]2CCCN2C(=O)CNC(=O)[C@H](CCCCN)NC(=O)[C@H](Cc2c[nH]cn2)NC(=O)[C@@H](NC(=O)[C@H](CC(C)C)NC(=O)[C@H](CCCNC(=N)N)NC(=O)[C@@H]2CCCN2C(=O)[C@H](CCCNC(=N)N)NC(=O)[C@@H]2CCC(=O)N2)CSSC[C@@H](C(N)=O)NC1=O [Example 63, pE-R-P-R-L-C-H-K-G-P-Nle-C-NH2] ([pGlu]RPRLCHKGP[Nle]C-NH2; disulfide 6-12)"
2,> 16.7,"CCCC[C@@H]1NC(=O)[C@@H]2CCCN2C(=O)CNC(=O)[C@H](CCCCN)NC(=O)[C@H](Cc2c[nH]cn2)NC(=O)[C@@H](NC(=O)[C@H](CC(C)C)NC(=O)[C@H](CCCNC(=N)N)NC(=O)[C@@H]2CCCN2C(=O)[C@H](CCCNC(=N)N)NC(=O)[C@@H]2CCC(=O)N2)CSSCC[C@H](C(=O)N[C@@H](Cc2ccccc2)C(=O)O)NC1=O [Example 54, pE-R-P-R-L-C-H-K-G-P-Nle-(D-hC)-F-OH] ([pGlu]RPRLCHKGP[Nle][d(hCys)]F-OH; disulfide 6-12)"
3,> 16.7,"CCCC[C@@H]1NC(=O)[C@@H]2CCCN2C(=O)CNC(=O)[C@H](CCCCN)NC(=O)[C@H](Cc2c[nH]cn2)NC(=O)[C@H](NC(=O)[C@H](CC(C)C)NC(=O)[C@H](CCCNC(=N)N)NC(=O)[C@@H]2CCCN2C(=O)[C@H](CCCNC(=N)N)NC(=O)[C@@H]2CCC(=O)N2)CSSC[C@@H](C(=O)N[C@@H](Cc2ccccc2)C(=O)O)NC1=O [Example 53, pE-R-P-R-L-c-H-K-G-P-Nle-C-F-OH] ([pGlu]RPRL[dC]HKGP[Nle]CF-OH; disulfide 6-12)"
4,9.93,"CCCC[C@@H]1NC(=O)[C@@H]2CCCN2C(=O)CNC(=O)[C@H](CCCCN)NC(=O)[C@H](Cc2cnc[nH]2)NC(=O)[C@@H](NC(=O)[C@H](CC(C)C)NC(=O)[C@H](CCCNC(=N)N)NC(=O)[C@@H]2CCCN2C(=O)[C@H](CCCNC(=N)N)NC(=O)[C@@H]2CCC(=O)N2)CSC[C@@H](C(=O)N[C@@H](Cc2ccccc2)C(=O)O)NC1=O [Example 65, pE-R-P-R-L-C-H-K-G-P-Nle-C-F-OH]"
5,10.9,"CCCC[C@@H]1NC(=O)[C@@H]2CCCN2C(=O)CNC(=O)[C@H](CCCCN)NC(=O)[C@H](Cc2c[nH]cn2)NC(=O)[C@@H](NC(=O)[C@H](CC(C)C)NC(=O)[C@H](CCCNC(=N)N)NC(=O)[C@@H]2CCCN2C(=O)[C@H](CCCNC(=N)N)NC(=O)[C@@H]2CCC(=O)N2)CSSCC[C@@H](C(=O)N[C@@H](Cc2ccccc2)C(=O)O)NC1=O [Example 51, pE-R-P-R-L-C-H-K-G-P-Nle-hC-F-OH] ([pGlu]RPRLCHKGP[Nle][hCys]F-OH; disulfide 6-12)"
6,> 16.7,"CCCCCCCCCCCCCC(=O)NCCOCCOCC(=O)NCCOCCOCC(=O)NCCOCCOCC(=O)N[C@@H](CCC(N)=O)C(=O)N[C@@H](CCCNC(=N)N)C(=O)N1CCC[C@H]1C(=O)N[C@@H](CCCNC(=N)N)C(=O)N[C@@H](CC(C)C)C(=O)N[C@H]1CSSC[C@@H](C(=O)N[C@H](Cc2ccccc2)C(=O)O)NC(=O)[C@H](CCCC)NC(=O)[C@@H]2CCCN2C(=O)CNC(=O)[C@H](CCCCN)NC(=O)[C@H](Cc2c[nH]cn2)NC1=O [Example 59, Myristoyl-O2Oc-O2Oc-O2Oc-Q-R-P-R-L-C-H-K-G-P-Nle-C-f-OH] ({Myristoyl-AEEA-AEEA-AEEA}-QRPRLCHKGP[Nle]C[dF]-OH; disulfide 6-12)"

# Continued, molecule first:
row,Compound,half-life [h]
1,"CCCC[C@@H]1NC(=O)[C@@H]2CCCN2C(=O)CNC(=O)[C@H](CCCCN)NC(=O)[C@H](Cc2ccccc2)NC(=O)[C@@H](NC(=O)[C@H](CC(C)C)NC(=O)[C@H](CCCNC(=N)N)NC(=O)[C@@H]2CCCN2C(=O)[C@H](CCCNC(=N)N)NC(=O)[C@@H]2CCC(=O)N2)CCCCNC(=O)[C@@H](Cc2ccccc2)NC1=O [Example 6, pE-R-P-R-L-K-F-K-G-P-Nle-f] ([pGlu]RPRLKFKGP[Nle][dF]; lactam 6-C)",1.95
2,"CCCC[C@@H]1NC(=O)[C@@H]2CCCN2C(=O)CNC(=O)[C@H](Cc2ccccc2)NC(=O)[C@H](Cc2c[nH]cn2)NC(=O)[C@@H](NC(=O)[C@H](CC(C)C)NC(=O)[C@H](CCCNC(=N)N)NC(=O)[C@@H]2CCCN2C(=O)[C@H](CCCNC(=N)N)NC(=O)[C@@H]2CCC(=O)N2)CCNC(=O)C[C@@H](C(=O)NCCc2ccccc2)NC1=O [Example 4, pE-R-P-R-L-Dab-H-F-G-P-Nle-D-Phenethylamine] ([pGlu]RPRL[Dab]HFGP[Nle]D-NHPhenethyl; lactam 6-12)",0.833
3,"CCCC[C@@H]1NC(=O)[C@@H]2CCCN2C(=O)CNC(=O)[C@H](CCCCN)NC(=O)[C@H](Cc2c[nH]cn2)NC(=O)[C@@H](NC(=O)[C@H](CC(C)C)NC(=O)[C@H](Cc2ccccc2)NC(=O)[C@@H]2CCCN2C(=O)[C@H](CCCNC(=N)N)NC(=O)[C@@H]2CCC(=O)N2)CSSC[C@@H](C(=O)N[C@@H](Cc2ccccc2)C(=O)O)NC1=O [Example 36, pE-R-P-F-L-C-H-K-G-P-Nle-C-F-OH] ([pGlu]RPFLCHKGP[Nle]CF-OH; disulfide 6-12)",> 16.7
4,"CCCC[C@@H]1NC(=O)[C@@H]2CCCN2C(=O)C(C)(C)NC(=O)[C@H](CCCCN)NC(=O)[C@H](Cc2c[nH]cn2)NC(=O)[C@@H](NC(=O)[C@H](CC(C)C)NC(=O)[C@H](CCCNC(=N)N)NC(=O)[C@@H]2CCCN2C(=O)[C@H](CCCNC(=N)N)NC(=O)[C@@H]2CCC(=O)N2)CSSC[C@@H](C(=O)N[C@@H](Cc2ccccc2)C(=O)O)NC1=O [Example 20, pE-R-P-R-L-C-H-K-Aib-P-Nle-C-F-OH] ([pGlu]RPRLCHK[Aib]P[Nle]CF-OH; disulfide 6-12)",8.17
5,"CCCC[C@@H]1NC(=O)[C@@H]2CCCN2C(=O)CNC(=O)[C@H](Cc2ccccc2)NC(=O)[C@H](Cc2c[nH]cn2)NC(=O)[C@@H](NC(=O)[C@H](CC(C)C)NC(=O)[C@H](CCCNC(=N)N)NC(=O)[C@@H]2CCCN2C(=O)[C@H](CCCNC(=N)N)NC(=O)[C@@H]2CCC(=O)N2)CCCCNC(=O)C[C@@H](C(=O)NCCc2ccccc2)NC1=O [Example 1, pE-R-P-R-L-K-H-F-G-P-Nle-D-Phenethylamine] ([pGlu]RPRLKHFGP[Nle]D-NHPhenethyl; lactam 6-12)",0.512
6,"CCCC[C@@H]1NC(=O)[C@@H]2CCCN2C(=O)CNC(=O)[C@H](CCCCN)NC(=O)[C@H](Cc2c[nH]cn2)NC(=O)[C@@H](NC(=O)[C@H](CC(=O)O)NC(=O)[C@H](CCCNC(=N)N)NC(=O)[C@@H]2CCCN2C(=O)[C@H](CCCNC(=N)N)NC(=O)[C@@H]2CCC(=O)N2)CSSC[C@@H](C(=O)N[C@@H](Cc2ccccc2)C(=O)O)NC1=O [Example 42, pE-R-P-R-D-C-H-K-G-P-Nle-C-F-OH] ([pGlu]RPRDCHKGP[Nle]CF-OH; disulfide 6-12)",> 16.7
7,"CCCC[C@@H]1NC(=O)[C@@H]2CCCN2C(=O)CNC(=O)[C@H](CCCCN)NC(=O)[C@H](Cc2c[nH]cn2)NC(=O)[C@@H](NC(=O)[C@H](CC(C)C)NC(=O)[C@H](CCCNC(=N)N)NC(=O)[C@@H]2CCCN2C(=O)[C@H](CCC(=O)O)NC(=O)[C@@H]2CCC(=O)N2)CSSC[C@@H](C(=O)N[C@@H](Cc2ccccc2)C(=O)O)NC1=O [Example 32, pE-E-P-R-L-C-H-K-G-P-Nle-C-F-OH] ([pGlu]EPRLCHKGP[Nle]CF-OH; disulfide 6-12)",> 16.7
8,"CC(C)C[C@H](NC(=O)[C@H](CCCNC(=N)N)NC(=O)[C@@H]1CCCN1C(=O)[C@H](CCCNC(=N)N)NC(=O)[C@@H]1CCC(=O)N1)C(=O)N[C@H]1CSSC[C@@H](C(=O)N[C@@H](Cc2ccccc2)C(=O)O)NC(=O)[C@H](Cc2cccnc2)NC(=O)[C@@H]2CCCN2C(=O)CNC(=O)[C@H](CCCCN)NC(=O)[C@H](Cc2c[nH]cn2)NC1=O [Example 47, pE-R-P-R-L-C-H-K-G-P-(3-PyA)-C-F-OH] ([pGlu]RPRLCHKGP[3Pal]CF-OH; disulfide 6-12)",6.98
9,"CCCC[C@@H]1NC(=O)[C@@H]2CCCN2C(=O)CNC(=O)[C@H](Cc2ccccc2)NC(=O)[C@H](Cc2c[nH]cn2)NC(=O)[C@@H](NC(=O)[C@H](CC(C)C)NC(=O)[C@H](CCCNC(=N)N)NC(=O)[C@@H]2CCCN2C(=O)[C@H](CCCNC(=N)N)NC(=O)[C@@H]2CCC(=O)N2)CCCNC(=O)C[C@@H](C(=O)NCCc2ccccc2)NC1=O [Example 3, pE-R-P-R-L-Orn-H-F-G-P-Nle-D-Phenethylamine] ([pGlu]RPRL[Orn]HFGP[Nle]D-NHPhenethyl; lactam 6-12)",1.63
10,"CCCC[C@@H]1NC(=O)[C@@H]2CCCN2C(=O)CNC(=O)[C@H](CCCCN)NC(=O)[C@H](Cc2c[nH]cn2)NC(=O)[C@@H](NC(=O)[C@H](CC(C)C)NC(=O)[C@H](CCCNC(=N)N)NC(=O)[C@@H]2CCCN2C(=O)[C@@H](CCCNC(=N)N)NC(=O)[C@@H]2CCC(=O)N2)CSSC[C@@H](C(=O)N[C@@H](Cc2ccccc2)C(=O)O)NC1=O [Example 30, pE-r-P-R-L-C-H-K-G-P-Nle-C-F-OH] ([pGlu][dR]PRLCHKGP[Nle]CF-OH; disulfide 6-12)",> 16.7
11,"CCCC[C@@H]1NC(=O)[C@@H]2CCCN2C(=O)CNC(=O)[C@H](CCCCN)NC(=O)[C@H](Cc2c[nH]cn2)NC(=O)[C@@H](NC(=O)[C@H](Cc2ccc(-c3ccccc3)cc2)NC(=O)[C@H](CCCNC(=N)N)NC(=O)[C@@H]2CCCN2C(=O)[C@H](CCCNC(=N)N)NC(=O)[C@@H]2CCC(=O)N2)CSSC[C@@H](C(=O)N[C@@H](Cc2ccccc2)C(=O)O)NC1=O [Example 41, pE-R-P-R-(4-PhF)-C-H-K-G-P-Nle-C-F-OH] ([pGlu]RPR[Bip]CHKGP[Nle]CF-OH; disulfide 6-12)",10.5
12,"CCCC[C@@H]1NC(=O)[C@@H]2CCCN2C(=O)CNC(=O)[C@H](CCCCN)NC(=O)C(C)(C)NC(=O)[C@@H](NC(=O)[C@H](CC(C)C)NC(=O)[C@H](CCCNC(=N)N)NC(=O)[C@@H]2CCCN2C(=O)[C@H](CCCNC(=N)N)NC(=O)[C@@H]2CCC(=O)N2)CSSC[C@@H](C(=O)N[C@@H](Cc2ccccc2)C(=O)O)NC1=O [Example 9, pE-R-P-R-L-C-Aib-K-G-P-Nle-C-F-OH] ([pGlu]RPRLC[Aib]KGP[Nle]CF-OH; disulfide 6-12)",> 16.7
